The nature of data set [1]: Marine BODIS biodegradation. As for the experimental part: (§1) Firstly the environmental data were determined according to OECD 306 biodegradability and aquatic toxicity testing on the glucamides and the result is outlined in Tables 1 and 2.
A further data set relates to Algae. The data set is described as follows: Aquatic toxicity testing, 72 hr Algae EC50. The format is cell-based. As for the experimental part:
as §1

Data set [2] in a line: Corrosion test, rotating cylinder electrode (RCE), LPR. Particulars: 150° F., 2000 RPM, synthetic brine, 100% CO2, 12 ppm total inhibitor, vs 2 hr baseline. An excerpt:
In order to evaluate the corrosion inhibition efficacy of the formulations, two different test methods were employed: rotating cylinder electrode (RCE) tests and high pressure, high temperature (HPHT) autoclave weight loss tests. For all testing, the following standard brine composition was used (as outlined in table 3):
A gas composition of 100% CO2 was used throughout testing.
The metallurgy of the coupons tested was C1018 carbon steel for RCE testing and HPHT autoclave testing. Coupons were polished mechanically using 320 grit silicon-carbide (SiC) paper, 400 grit SiC paper, then 600 grit SIC paper and rinsed with water then acetone prior to testing.
The rotating cylinder electrode (RCE) tests were conducted in Pyrex™ glass reaction kettles that were heated to 150° F. The testing solution was comprised of 900 mL of brine. The electrode rotation rate was set at 2000 RPM, which generated a wall shear stress of 7.0 Pa. Linear polarization resistance (LPR) measurements were made with a Gamry electrochemical measurement system. The working electrode was made of a 1018 carbon steel (CS) cylinder with a surface area of 3.16 cm^2. A Hastelloy C276 electrode was used as a pseudo-reference, and a titanium rod was used as the counter electrode. […] The baseline corrosion rate corresponds to the blank corrosion value. Upon completion of the tests, the electrodes were cleaned in an inhibited acid bath according to ASTM G1 C.3.5, and weighed to 0.1 mg.

Regarding `CCCCCCCC/C=C\CCCCCCCC(=O)N(C)CC(O)C(O)C(O)C(O)CO` (centres unmarked) [Glucamide #5], in data set [1], the “Marine BODIS biodegradation Day 7” value was determined as 23%, the “Marine BODIS biodegradation Day 14” value came to 33%, the “Marine BODIS biodegradation Day 21” value is 37% and the “Marine BODIS biodegradation Day 28” value came out at 42%. In the data set with Algae, the “72 hr Algae EC50, Definitive result” value amounted to 4.55 µg/mL and the “72 hr Algae EC50, Range-finding result” value was determined as 6.199 µg/mL. For the same compound, in data set [2], the “Protection 2 hr after Cl dose” value was 75.7% and the “Protection Final 3 hr” value came to 94.0%.

Regarding `OCCS` [MET, Mercaptoethanol], in data set [2], the “Protection 2 hr after Cl dose” value is listed as 74.4% and the “Protection Final 3 hr” value is on record as 91.4%. Moreover, in the data set “OECD 306 biodegradation”, the “OECD 306 biodegradation Day 7” value worked out at 5%, the “OECD 306 biodegradation Day 14” value came to 6%, the “OECD 306 biodegradation Day 21” value came out at 8% and the “OECD 306 biodegradation Day 28” value was found to be 17%.

Take `N.N.O=S(O)(O)=S` [ATS, Ammoniumthiosulfate]: in data set [2], the “Protection 2 hr after Cl dose” value came out at 75.6% and the “Protection Final 3 hr” value is 91.2%.

For `CCCCCCCC/C=C\CCCCCCCCN[C@@H](CCSC)C(=O)O` [OMet, N-Oleyl-Methionine], in data set [2], the “Protection 2 hr after Cl dose” value was determined as 77.6% and the “Protection Final 3 hr” value is 92.7%. In “OECD 306 biodegradation”, the “OECD 306 biodegradation Day 7” value is 60%, the “OECD 306 biodegradation Day 14” value was found to be 60%, the “OECD 306 biodegradation Day 21” value is given as 60% and the “OECD 306 biodegradation Day 28” value amounted to 60%.

For `CCCCCCCC/C=C\CCCCCCCC(=O)N(C)CC1OC(CO)C(O)C1O` (centres unmarked) [Glucamide #6], in data set [2], the “Protection 2 hr after Cl dose” value is listed as 76.7% and the “Protection Final 3 hr” value turned out to be 94.2%.

For the compound `N.O=C(O)CS` [ATG, Ammonium Thioglycolate], in data set [2], the “Protection 2 hr after Cl dose” value is given as 71.8% and the “Protection Final 3 hr” value was 91.4%. Besides, in the data set “OECD 306 biodegradation”, the “OECD 306 biodegradation Day 7” value came to 9%, the “OECD 306 biodegradation Day 14” value was 20%, the “OECD 306 biodegradation Day 21” value turned out to be 33% and the “OECD 306 biodegradation Day 28” value was found to be 39%.

Consider `CC(C)CCC(C)CCC(C)CC(=O)N(C)CC(O)C(O)C(O)C(O)CO` (centres unmarked) [Glucamide #2], for which, in data set [2], the “Protection 2 hr after Cl dose” value was determined as 79.1% and the “Protection Final 3 hr” value worked out at 93.8%.

As to `O=C([O-])c1ccccc1.[Na+]` [Reference, sodium benzoate, reference compound], in data set [1], the “Marine BODIS biodegradation Day 7” value stood at 66%, the “Marine BODIS biodegradation Day 14” value is 77%, the “Marine BODIS biodegradation Day 21” value is listed as 81% and the “Marine BODIS biodegradation Day 28” value turned out to be 83%. In “OECD 306 biodegradation”, the “OECD 306 biodegradation Day 7” value is 78%, the “OECD 306 biodegradation Day 14” value turned out to be 74%, the “OECD 306 biodegradation Day 21” value is on record as 86% and the “OECD 306 biodegradation Day 28” value is 68%.

In the case of `CCCCCCCCCC(=O)N(C)CC(O)C(O)C(O)C(O)CO` (centres unmarked) [Glucamide #1], in the data set on Algae, the “72 hr Algae EC50, Definitive result” value amounted to 165.24 µg/mL and the “72 hr Algae EC50, Range-finding result” value was 335.40 µg/mL. Moreover, in data set [2], the “Protection 2 hr after Cl dose” value turned out to be 72.1% and the “Protection Final 3 hr” value is on record as 92.7%. Further, in “OECD 306 biodegradation”, the “OECD 306 biodegradation Day 7” value amounted to 15%, the “OECD 306 biodegradation Day 14” value worked out at 25%, the “OECD 306 biodegradation Day 21” value came to 33% and the “OECD 306 biodegradation Day 28” value amounted to 31%.

In the case of `NC(N)=S` [TU, Thiourea], in the data set “OECD 306 biodegradation”, the “OECD 306 biodegradation Day 7” value was determined as 19%, the “OECD 306 biodegradation Day 14” value is 32%, the “OECD 306 biodegradation Day 21” value was 20% and the “OECD 306 biodegradation Day 28” value was 55%.

For `CC(C)CCC(C)CCC(C)CC(=O)N(C)CC1OC(CO)C(O)C1O` (centres unmarked) [Glucamide #4], in data set [2], the “Protection 2 hr after Cl dose” value came out at 76.0% and the “Protection Final 3 hr” value came out at 94.3%.

On to `CCCCCCCCCC(=O)N(C)CC1OC(CO)C(O)C1O` (centres unmarked) [Glucamide #3], for which, in data set [2], the “Protection 2 hr after Cl dose” value was determined as 73.4% and the “Protection Final 3 hr” value came out at 93.5%.

The record behind these values is patent US20200017752A1, “Use Of A Composition Containing At Least One Biodegradable Sugar-Amide-Compound In Combination With At Least One Sulfur-Based Synergist For Corrosion Inhibition Of A Metallic Equipment In Oilfield Applications” (Clariant International Ltd., priority 2016, published 2020).
